Experimental data published in PubChem BioAssay AID977623 (Broad Institute, 2014).
Records with an inconclusive call do not appear. The source made the active and inactive calls.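 How the source made its calls: active means red signal of normal-ribosome cells cut twice as much as green signal of humanized-ribosome cells, growth loss under 30%; inactive means the rest, inconclusive results apart.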

What was measured:
[1] = wild-type E. coli growth inhibition versus H69 humanized strain – H69 mutant GFP, wild-type RFP, cherry-pick, dose response (AID 977623); conditions: E. coli WT-RFP/H69-GFP mixed culture, fluorescence, 24 h
[2] = test system: E. coli WT-RFP/H69-GFP mixed culture, fluorescence, 24 h; test: as above
[3] = E. coli WT-RFP/H69-GFP mixed culture, 24 h, measured here: total growth OD600
[4] = measured here: H69 humanized strain GFP growth

SMILES	activity change, negative = inhibition ([1]; at 50 µM (top of the series))	AC50 [2, 3] [µM]	AC50 [2, 4] [µM]	activity change, negative = inhibition ([1]; at 26 µM (top of the series))	AC50 [2]
CCOC(=O)c1c(NC(=O)Cc2cccs2)sc(C)c1C	24.9 (inactive)	9.61	47.4	–	–
O=C(O)c1cc([N+](=O)[O-])ccc1NCc1ccccc1	3.75 (inactive)	15.2	–	–	–
COc1ccc2[nH]c3c(=O)n(CCCCC(=O)NCCC(C)C)c(=S)[nH]c3c2c1	100 (inactive)	–	–	–	–
Cc1noc(C)c1NC(=O)Nc1ccc2c(c1)C(=O)N([C@H](C)CO)C[C@@H](C)[C@@H](CN(C)C(=O)Nc1ccc3c(c1)OCO3)OCCCC[C@@H](C)O2	153 (inactive)	> 100	–	–	–
COc1cc2c(cc1[N+](=O)[O-])-c1ccc([N+](=O)[O-])cc1C2	–	2.76	> 100	77.3 (inactive)	–
COc1ccc(Cn2c(-c3ccc(Cl)cc3)c[n+]3ccccc23)cc1	26.5 (inactive)	47.2	–	–	–
COc1ccc(NC(=O)c2ccc(-c3ccc([N+](=O)[O-])cc3)o2)cc1	–	5.6	> 100	–	> 100 µM (inactive)
C[C@@H]1CCCCO[C@H](CN(C)C(=O)CCCN(C)C)[C@H](C)CN([C@@H](C)CO)C(=O)c2cc(NC(=O)Nc3cccc4ccccc34)ccc2O1	102 (inactive)	–	> 100	–	–
Cc1ccc(C)c(NC(=O)CSc2nc3nc(-c4cccs4)cc(C(F)(F)F)c3c(=O)[nH]2)c1	16.1 (inactive)	10.3	12.8	–	–
